Measurements reported in the supplement of paper PMC7214452.
Counter-ions that a name gives are not always drawn.

Key:
Test in all cases: normalized area under the dose-response curve (viability relative to DMSO control) (fraction); higher = less sensitive (more viable cells)
Conditions in all cases: exposure time not given
[1] = test system: OPM2 (cancer type: MM)
Procedure: (§1)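 25 myeloma and 15 non-Hodgkin lymphoma cell lines were exposed to each of 76 drugs as 7-point log dilutions (0.01 nM–10 µM) in duplicate. Viability was read with CellTiter-Glo and normalised to DMSO (0.1%) and staurosporine (10 µM) plate controls. Normalised AUC was calculated by the trapezoidal method relative to the negative control.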

[2] = test system: FR4 (cancer type: MM)
Procedure: as §1

[3] = test system: KMS11 (cancer type: MM)
Procedure: as §1

[4] = test system: LP1 (cancer type: MM)
Procedure: as §1

[5] = test system: KMS26 (cancer type: MM)
Procedure: as §1

[6] = test system: AMO1 (cancer type: MM)
Procedure: as §1

[7] = test system: U266 (cancer type: MM)
Procedure: as §1

[8] = test system: OCI-MY5/CRBN (cancer type: MM)
Procedure: as §1

[9] = test system: Karpas-299 (cancer type: TCL)
Procedure: as §1

[10] = test system: SKMM2 (cancer type: MM)
Procedure: as §1

[11] = test system: SU-DHL1 (cancer type: TCL)
Procedure: as §1

[12] = test system: SU-DHL2 (cancer type: DLBCL)
Procedure: as §1

[13] = test system: OCI-MY5/Vec (cancer type: MM)
Procedure: as §1

[14] = test system: MM1.S (cancer type: MM)
Procedure: as §1

[15] = test system: NCI-H929 (cancer type: MM)
Procedure: as §1

[16] = test system: KMS28PE (cancer type: MM)
Procedure: as §1

[17] = test system: KMS28BM (cancer type: MM)
Procedure: as §1

[18] = test system: KMS34 (cancer type: MM)
Procedure: as §1

[19] = test system: OCI-LY1 (cancer type: DLBCL)
Procedure: as §1

[20] = test system: KMS12PE (cancer type: MM)
Procedure: as §1

[21] = test system: Se-Ax (cancer type: TCL)
Procedure: as §1

[22] = test system: Mino (cancer type: Mantle)
Procedure: as §1

[23] = test system: OCI-LY19 (cancer type: DLBCL)
Procedure: as §1

[24] = test system: OCI-MY5 (cancer type: MM)
Procedure: as §1

[25] = test system: JVM2 (cancer type: Mantle)
Procedure: as §1

[26] = test system: MM1.R (cancer type: MM)
Procedure: as §1

[27] = test system: My-La (cancer type: TCL)
Procedure: as §1

[28] = test system: RPMI 8226 (cancer type: MM)
Procedure: as §1

[29] = test system: JeKo-1 (cancer type: Mantle)
Procedure: as §1

[30] = test system: SU-DHL6 (cancer type: DLBCL)
Procedure: as §1

[31] = test system: EJM (cancer type: MM)
Procedure: as §1

[32] = test system: XG2 (cancer type: MM)
Procedure: as §1

[33] = test system: Granta-519 (cancer type: Mantle)
Procedure: as §1

[34] = test system: KMS18 (cancer type: MM)
Procedure: as §1

[35] = test system: L363 (cancer type: MM)
Procedure: as §1

[36] = test system: OCI-MY7 (cancer type: MM)
Procedure: as §1

[37] = test system: HuT 78 (cancer type: TCL)
Procedure: as §1

[38] = test system: JJN3 (cancer type: MM)
Procedure: as §1

[39] = test system: SR-786 (cancer type: TCL)
Procedure: as §1

[40] = test system: OCI-LY3 (cancer type: DLBCL)
Procedure: as §1

SMILES | normalized area under the dose-response curve [1] | normalized area under the dose-response curve [2] | normalized area under the dose-response curve [3] | normalized area under the dose-response curve [4] | normalized area under the dose-response curve [5] | normalized area under the dose-response curve [6] | normalized area under the dose-response curve [7] | normalized area under the dose-response curve [8] | normalized area under the dose-response curve [9] | normalized area under the dose-response curve [10] | normalized area under the dose-response curve [11] | normalized area under the dose-response curve [12] | normalized area under the dose-response curve [13] | normalized area under the dose-response curve [14] | normalized area under the dose-response curve [15] | normalized area under the dose-response curve [16] | normalized area under the dose-response curve [17] | normalized area under the dose-response curve [18] | normalized area under the dose-response curve [19] | normalized area under the dose-response curve [20] | normalized area under the dose-response curve [21] | normalized area under the dose-response curve [22] | normalized area under the dose-response curve [23] | normalized area under the dose-response curve [24] | normalized area under the dose-response curve [25] | normalized area under the dose-response curve [26] | normalized area under the dose-response curve [27] | normalized area under the dose-response curve [28] | normalized area under the dose-response curve [29] | normalized area under the dose-response curve [30] | normalized area under the dose-response curve [31] | normalized area under the dose-response curve [32] | normalized area under the dose-response curve [33] | normalized area under the dose-response curve [34] | normalized area under the dose-response curve [35] | normalized area under the dose-response curve [36] | normalized area under the dose-response curve [37] | normalized area under the dose-response curve [38] | normalized area under the dose-response curve [39] | normalized area under the dose-response curve [40]
CN(C)C/C=C/C(=O)Nc1cc2c(Nc3ccc(F)c(Cl)c3)ncnc2cc1O[C@H]1CCOC1 [Afatinib] | 0.692 | 0.685 | 0.53 | 0.637 | 0.848 | 0.562 | 0.801 | 0.548 | 0.636 | 0.642 | 0.558 | 0.758 | 0.477 | 0.5 | 0.63 | 0.529 | 0.682 | 0.461 | 0.796 | 0.53 | 0.604 | 0.643 | 0.739 | 0.372 | 0.497 | 0.49 | 0.74 | 0.467 | 0.531 | 0.811 | 0.66 | 0.496 | 0.69 | 0.822 | 0.521 | 0.62 | 0.496 | 0.57 | 0.709 | 0.819
Cn1ncc(Cl)c1-c1cc(C(=O)N[C@H](CN)Cc2cccc(F)c2)sc1Cl [Afuresertib] | 0.369 | 0.591 | 0.439 | 0.384 | 0.499 | 0.414 | 0.525 | 0.742 | 0.765 | 0.49 | 0.48 | 0.913 | 0.637 | 0.26 | 0.33 | 0.282 | 0.363 | 0.211 | 0.657 | 0.49 | 0.416 | 0.813 | 0.739 | 0.398 | 0.652 | 0.2 | 0.784 | 0.331 | 0.808 | 0.816 | 0.486 | 0.436 | 0.821 | 0.293 | 0.375 | 0.7 | 0.758 | 0.55 | 0.713 | 0.851
COc1cc(Nc2ncc3c(n2)-c2ccc(Cl)cc2C(c2c(F)cccc2OC)=NC3)ccc1C(=O)O [Alisertib] | 0.957 | 0.916 | 0.772 | 0.851 | 0.887 | 0.7 | 0.859 | 0.85 | 0.816 | 0.967 | 0.761 | 0.964 | 0.809 | 0.85 | 0.94 | 0.918 | 0.913 | 0.684 | 0.794 | 0.94 | 0.73 | 0.622 | 0.853 | 0.881 | 0.706 | 0.85 | 0.851 | 0.927 | 0.716 | 0.946 | 0.889 | 0.69 | 0.709 | 0.833 | 0.872 | 0.92 | 0.826 | 0.919 | 0.802 | 0.878
CC(=O)OC[C@H]1O[C@@H]([S-])[C@H](OC(C)=O)[C@@H](OC(C)=O)[C@@H]1OC(C)=O.CCP(CC)CC.[Au+] [Auranofin] |  |  |  |  |  |  |  | 0.0579 |  |  | 0.139 | 0.611 | 0.0417 | 0.09 | 0.08 |  |  |  | 0.372 | 0.33 | 0.247 |  | 0.344 |  | 0.157 | 0.05 |  |  |  | 0.553 |  |  |  |  |  | 0.07 | 0.239 |  |  | 0.553
Nc1ncn([C@@H]2O[C@H](CO)[C@@H](O)[C@H]2O)c(=O)n1 [Azacitidine] | 0.535 | 0.427 | 0.545 | 0.766 | 0.757 | 0.496 | 0.679 | 0.756 | 0.624 | 0.767 | 0.453 | 0.673 | 0.702 | 0.6 | 0.4 | 0.678 | 0.774 | 0.64 | 0.508 | 0.56 | 0.637 | 0.807 | 0.716 | 0.564 | 0.552 | 0.65 | 0.87 | 0.665 | 0.72 | 0.65 | 0.635 | 0.612 | 0.778 | 0.736 | 0.488 | 0.6 | 0.419 | 0.645 | 0.74 | 0.707
O=C(/C=C/c1cccc(S(=O)(=O)Nc2ccccc2)c1)NO [Belinostat] | 0.674 | 0.428 | 0.445 | 0.628 | 0.366 | 0.301 | 0.394 | 0.262 | 0.0712 | 0.712 | 0.218 | 0.4 | 0.25 | 0.21 | 0.1 | 0.384 | 0.416 | 0.274 | 0.223 | 0.4 | 0.215 | 0.249 | 0.38 | 0.201 | 0.385 | 0.36 | 0.506 | 0.564 | 0.229 | 0.582 | 0.247 | 0.473 | 0.531 | 0.553 | 0.473 | 0.44 | 0.178 | 0.53 | 0.215 | 0.343
Cn1c(CCCC(=O)O)nc2cc(N(CCCl)CCCl)ccc21 [Bendamustine hydrochloride] | 0.842 | 0.955 | 0.849 | 0.946 | 0.677 | 0.849 | 0.92 | 0.932 | 0.831 | 0.955 | 0.794 | 0.795 | 0.921 | 0.68 | 0.75 | 0.847 | 0.869 | 0.755 | 0.832 | 0.74 | 0.719 | 0.86 | 0.834 | 0.835 | 0.684 | 0.67 | 0.862 | 0.879 | 0.87 | 0.911 | 0.815 | 0.875 | 0.885 | 0.832 | 0.84 | 0.74 | 0.779 | 0.938 | 0.74 | 0.784
O=C1CC[C@H](N2Cc3c(OCc4ccc(CN5CCOCC5)cc4)cccc3C2=O)C(=O)N1 [Iberdomide] |  |  |  |  |  |  |  | 0.913 |  |  | 0.996 | 0.921 | 0.947 | 0.78 | 0.86 |  |  |  | 0.968 | 0.93 | 0.953 |  | 0.809 |  | 0.917 | 0.91 |  |  |  | 0.887 |  |  |  |  |  | 0.94 | 0.913 |  |  | 0.983
CC(C)C[C@H](NC(=O)CNC(=O)c1cc(Cl)ccc1Cl)B(O)O [Ixazomib] |  |  |  | 0.344 | 0.157 |  |  | 0.0319 | 0.403 |  | 0.186 | 0.453 | 0.027 | 0.09 | 0.1 |  |  | 0.306 | 0.362 | 0.45 | 0.146 | 0.14 | 0.303 |  | 0.114 | 0.05 | 0.355 |  | 0.104 | 0.855 |  | 0.0819 | 0.129 |  |  | 0.12 | 0.156 |  | 0.355 | 0.285
Cc1[nH]c(/C=C2\C(=O)Nc3ccc(F)cc32)c(C)c1C(=O)NCCN1CCCC1 [Toceranib] |  |  |  | 0.796 | 0.906 |  |  | 0.884 | 0.757 |  | 0.561 | 0.959 | 0.967 | 0.82 | 0.88 |  |  | 0.667 | 1.06 | 0.79 | 0.728 | 0.898 | 0.894 |  | 0.702 | 0.83 | 0.993 |  | 0.831 | 0.894 |  | 0.723 | 0.898 |  |  | 0.86 | 0.756 |  | 0.818 | 0.902
